# How the values were obtained:
# [1] = molecular target: T1, porcine pancreatic lipase (PL) enzyme type II (Sus scrofa, UniProt P00591); assay: p-nitrophenyl butyrate hydrolysis, absorbance at […] nm; assay type: biochemical; settings: unreliable (a separate IC50 is printed for each sample concentration; this row is the 5 mg/mL one); crude enzyme; pNPB 10 mM stock in acetonitrile; Tris-HCl pH 7.4; 37 °C; 5 min preincubation
# T1 construct: gene PNLIP
# T1 sequence (P00591 1-450): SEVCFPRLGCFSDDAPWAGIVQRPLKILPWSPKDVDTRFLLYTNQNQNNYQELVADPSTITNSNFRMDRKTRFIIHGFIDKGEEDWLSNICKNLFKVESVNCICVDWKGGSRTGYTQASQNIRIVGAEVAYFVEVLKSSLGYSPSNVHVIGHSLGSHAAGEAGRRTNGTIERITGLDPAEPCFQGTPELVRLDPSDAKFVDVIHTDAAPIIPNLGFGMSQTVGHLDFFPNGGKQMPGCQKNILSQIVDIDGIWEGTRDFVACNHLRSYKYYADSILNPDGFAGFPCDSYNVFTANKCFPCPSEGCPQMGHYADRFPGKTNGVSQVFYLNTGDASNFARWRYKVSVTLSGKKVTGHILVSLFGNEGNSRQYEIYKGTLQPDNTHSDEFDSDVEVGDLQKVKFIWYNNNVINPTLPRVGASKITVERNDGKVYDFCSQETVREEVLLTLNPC
# yeast α-glucosidase = tested on: T2, yeast α-glucosidase; assay: p-nitrophenyl alpha-D-glucopyranoside hydrolysis, absorbance at […] nm; assay type: biochemical; settings: unreliable (a separate IC50 is printed for each sample concentration; this row is the 5 mg/mL one); 5 mM pNPG; 100 mM phosphate pH 6.8; 37 °C; 20 min; enzyme source contradictory (yeast or intestinal)
# T2 construct: gene MAL12; commercial native enzyme, Sigma-Aldrich; assay text says yeast, reagent list says intestinal
Pancreatic Lipase (PL) Inhibition Assay / Orlistat [1],α-Glucosidase inhibitory Assay / Acarbose (yeast α-glucosidase),SMILES
0.08 mg/mL,–,CCCCCCCCCCC[C@@H](C[C@@H]1OC(=O)[C@H]1CCCCCC)OC(=O)[C@H](CC(C)C)NC=O [Orlistat]
–,0.16 mg/mL,C[C@H]1O[C@H](O[C@H]2[C@H](O)[C@@H](O)[C@@H](O[C@H]3[C@H](O)[C@@H](O)C(O)O[C@@H]3CO)O[C@@H]2CO)[C@H](O)[C@@H](O)[C@@H]1N[C@H]1C=C(CO)[C@@H](O)[C@H](O)[C@H]1O (some centres unmarked) [Acarbose]
